The results in this text go back to US6835735B2, “4-(phenylamino)-[1,4]dioxano[2,3-g]quinazoline derivatives and process for preparing the same” (Korea Institute of Science and Technology, priority 2001, dated 2004).

The structures appear in SMILES notation. Values after ≈ are worked out from the molar mass of the structure shown. Where a name gives a salt, the structure may show the parent alone. A value given as a limit tells only on which side of the number the result lay.

Series [1] has as its target T1, purified human EGFR kinase (Homo sapiens, UniProt P00533).
T1 construct: purchased Promega
In words: Inhibition of EGFR tyrosine kinase (P32-ATP, biotin-conjugated substrate). The series is classed as biochemical. The conditions noted are these: for IC50: purified human EGFR kinase, 50 μM ATP, 30° C., 10 min. On the procedure: The test was accomplished in a 20 μl reaction volume using 0.1 unit per reaction of purified human EGFR kinase (Promega, U.S.A.) and 50 μM biotin-conjugated substrate for tyrosine kinase (Promega, U.S.A.) and, 50 μM P^32-γ-ATP (0.2 μCi) and 20 mM Tris-HCl (pH 7.5) were employed as an ATP and a reaction solution, respectively. The test was carried out at 30° C. for 10 min, and terminated by the addition of 10 μl of 30% phosphate solution. The half of the reaction product was spotted onto avidin-layered PVDF membrane, which was then washed with 20 mM Tris-HCl (pH 8.0) and 0.2N NaCl aqueous solution for more than 2 hours.

The next series relates to A431 cancer cell. Kind of series: Inhibition of cancer cell growth (sulforhodamine B). The series is classed as cell-based. The conditions noted are these: for inhibitory effect of cancer cell growth compared with standard material DP153035: A431, comparison drawn from Table 3; for GI50: Homo sapiens, A-431, 48 h; for GI50 / A431 GI50: A431 cells, grown 2 days with compound, SRB staining. On the procedure: A431 cancer cell was cultivated at 37° C. under an environment of 5% (v/v) CO2 employing RPMI 1640 medium containing 10% (v/v) fetal calf serum. […] The above cells was grown again for 2 days, and then, fixed with formalin solution (Sigma Chem. Co., U.S.A.) and washed with water. After that, the cells was dried in the atmosphere, stained with 0.1% (v/v) sulforhodamine B solution (Sigma Chem. Co., U.S.A.) for 30 min and wash with 1% (v/v) acetic acid aqueous solution. Then, dye attached to cells was extracted with 0.1M Tris-HCl (pH 8.0) and the absorbances of the remaining culture were measured at 520 nm by the aid of microplate reader. And then, the concentration of the compound by which cell growth is 50% inhibited was represented as GI50(s: Table 3).

The nature of series [2]: Measurement of the solubility of compounds in water (HPLC calibration curve). Type of series: physicochemical. The conditions noted are these: supersaturated in 1 ml of water, centrifuged, supernatant by HPLC; for solubility thermodynamic: read-out: Solubility (mg/10 ml of water). How it is done: That is, 1 mg of each of the above compounds was completely dissolved in 1 ml of DMSO, which was then subjected to HPLC employing C18 resin, and the peak area of chromatogram was calculated. And then, 1 mg of each of the same compound was dissolved in 10 ml of DMSO, which was then subjected to the same HPLC as the above to obtain a chromatogram, and the peak area was calculated therefrom. A solubility calibration curve was prepared by employing the above two data, and a linear function was deduced from that to complete a calibration curve (X axis: area, Y axis: logarithm value of concentration).
Each of the same compounds was supersaturated in 1 ml of water, which was then centrifuged at 14,000 rpm for 1 min. The precipitate was separated from the supernatant which was then subjected to the same HPLC as the above to obtain a chromatogram, and the peak area was calculated therefrom. The obtained value was substituted to the above calibration curve to measure the solubility by mg/10 ml of water (see: Table 1).

T1 sequence (P00533 25-1210): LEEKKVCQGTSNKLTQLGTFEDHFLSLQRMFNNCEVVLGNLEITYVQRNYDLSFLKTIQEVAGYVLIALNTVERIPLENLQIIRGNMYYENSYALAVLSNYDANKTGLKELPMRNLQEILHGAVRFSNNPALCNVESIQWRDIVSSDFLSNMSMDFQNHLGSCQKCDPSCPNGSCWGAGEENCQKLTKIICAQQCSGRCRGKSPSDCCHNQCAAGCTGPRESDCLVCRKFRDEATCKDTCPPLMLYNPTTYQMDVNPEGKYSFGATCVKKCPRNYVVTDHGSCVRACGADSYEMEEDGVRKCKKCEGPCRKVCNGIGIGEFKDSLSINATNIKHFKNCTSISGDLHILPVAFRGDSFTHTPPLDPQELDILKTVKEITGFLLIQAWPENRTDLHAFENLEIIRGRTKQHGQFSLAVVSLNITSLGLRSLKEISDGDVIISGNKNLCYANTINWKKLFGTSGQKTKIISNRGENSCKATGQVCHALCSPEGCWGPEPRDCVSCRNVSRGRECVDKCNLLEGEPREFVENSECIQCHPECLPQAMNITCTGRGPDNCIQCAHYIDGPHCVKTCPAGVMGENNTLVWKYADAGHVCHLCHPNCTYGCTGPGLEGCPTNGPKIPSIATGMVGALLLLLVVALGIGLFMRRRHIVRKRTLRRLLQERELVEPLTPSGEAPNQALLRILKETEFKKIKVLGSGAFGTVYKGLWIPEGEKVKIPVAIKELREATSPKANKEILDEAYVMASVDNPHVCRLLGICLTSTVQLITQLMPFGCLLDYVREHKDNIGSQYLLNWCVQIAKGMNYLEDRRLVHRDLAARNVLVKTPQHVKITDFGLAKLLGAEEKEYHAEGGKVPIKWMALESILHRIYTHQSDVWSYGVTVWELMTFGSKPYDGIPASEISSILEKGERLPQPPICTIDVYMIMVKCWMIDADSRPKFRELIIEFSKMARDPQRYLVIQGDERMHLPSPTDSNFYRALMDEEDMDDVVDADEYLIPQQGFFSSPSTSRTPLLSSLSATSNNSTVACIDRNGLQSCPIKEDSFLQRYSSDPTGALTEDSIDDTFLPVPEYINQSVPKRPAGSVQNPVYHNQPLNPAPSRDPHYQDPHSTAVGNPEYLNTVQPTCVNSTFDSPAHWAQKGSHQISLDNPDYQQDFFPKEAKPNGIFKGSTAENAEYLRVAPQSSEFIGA

A word on the IC50: it is the concentration needed to halve the response being measured. By GI50 is commonly meant the concentration that inhibits growth by half. In turn, `COCC1COc2cc3ncnc(Nc4cc(C)cc(C)c4)c3cc2O1` (stereo not drawn) [Example 15, (3,5-dimethylphenyl)-(7-methoxymethyl-[1,4]-dioxano[2,3-g]quinazolin-4-yl)-amine] registered an IC50 in series [1] above 285 nM. Moreover, in the series with A431 cancer cell, the “inhibitory effect of cancer cell growth compared with standard material DP153035” value is on record as “better inhibitory effect of cancer cell growth than the standard material” and the GI50 stood at 0.06 µg/mL (≈ 0.171 µM).
For `OCCN(CCO)CC1COc2cc3ncnc(Nc4cccc(Br)c4)c3cc2O1` (stereo not drawn) [Example 25], inhibition in series [1] was half-maximal at 100 nM (IC50). In addition, the GI50 in the series on A431 cancer cell stood at 0.61 µg/mL (≈ 1.28 µM).
On to `CC(C)[C@H](CO)NCC1COc2cc3ncnc(Nc4cccc(Br)c4)c3cc2O1` (stereo partly drawn) [Example 29], for which the half-maximal inhibitory concentration (IC50) in series [1] is above 211 nM. In addition, the 50% growth inhibitory concentration (GI50) with A431 cancer cell worked out at 1.9 µg/mL (≈ 4.01 µM).
As to `Brc1cccc(Nc2ncnc3cc4c(cc23)OC(CN2CCOCC2)CO4)c1` (stereo not drawn) [Example 23, (3-bromophenyl)-[7-(morpholine-4-ylmethyl)-[1,4]dioxano[2,3-g]quinazolin-4-yl]-amine], it took 63.1 nM to reach half-maximal inhibition in series [1] (IC50). For the same compound, the concentration for 50% growth inhibition (GI50) with A431 cancer cell came out at 0.13 µg/mL (≈ 0.284 µM).
In the case of `CN1CCN(CC2COc3cc4ncnc(Nc5cccc(Br)c5)c4cc3O2)CC1` (stereo not drawn) [Example 37, (3-bromophenyl)-[7-(4-methylpiperazin-1-yl)methyl-[1,4]dioxano[2,3-g]quinazolin-4-yl]amine hydrochloride], the 50% inhibitory concentration (IC50) in series [1] was 123 nM. Also, in the series on A431 cancer cell (hydrochloride), the “A431 GI50” value is 0.38 µg/mL.
In series [1], `COC[C@H]1Oc2cc3ncnc(Nc4cccc(Cl)c4)c3cc2O[C@@H]1COC` [Example 46, (7,8-bismethoxymethyl[1,4]dioxano[2,3-g]quinazolin-4-yl)-(3-chlorophenyl)-amine] gave a 50% inhibitory concentration (IC50) above 249 nM. In the series on A431 cancer cell, the GI50 came out at 2.37 µg/mL (≈ 5.9 µM).
Take `COCC1COc2cc3ncnc(Nc4cc(F)c(F)c(F)c4)c3cc2O1` (stereo not drawn) [Example 18, (3,4,5-trifluorophenyl)-(7-methoxymethyl-[1,4]-ioxano[2,3-g]quinazolin-4-yl)-amine]: the solubility thermodynamic in series [2] amounted to 45 µg/mL (≈ 119 µM). Further, the “inhibitory effect on EGFR tyrosine kinase compared with standard material DP153035” value in series [1] (comparison drawn from Table 2) is reported as “higher inhibitory effect than the standard material”. Moreover, in series [1], the IC50 is 4.19 nM. In addition, the concentration for 50% growth inhibition (GI50) in the series on A431 cancer cell amounted to 1.98 µg/mL (≈ 5.25 µM).
`COCC1COc2cc3ncnc(Nc4cc(Cl)cc(Cl)c4)c3cc2O1` (stereo not drawn) [Example 13, (3,5-dichlorophenyl)-(7-methoxymethyl-[1,4]-dioxano[2,3-g]quinazolin-4-yl)-amine]: in series [2], the solubility thermodynamic amounted to 8 µg/mL (≈ 20.4 µM). For the same compound, in series [1], half-maximal inhibition (IC50) was put at 34.7 nM. Moreover, in the series on A431 cancer cell, the “inhibitory effect of cancer cell growth compared with standard material DP153035” value is on record as “better inhibitory effect of cancer cell growth than the standard material” and the GI50 was 0.21 µg/mL (≈ 0.535 µM).
On to `Cl.Ic1cccc(Nc2ncnc3cc4c(cc23)OCC(CN2CCOCC2)O4)c1` (stereo not drawn) [Example 30], for which the “Solubility (mg/10 ml of water)” value in series [2] is >>1,000 mg/10 ml of water.
On the same count and under the same terms, under `CN1CCN(CC2COc3cc4ncnc(Nc5cccc(I)c5)c4cc3O2)CC1.Cl` (stereo not drawn) [Example 36, (3-iodophenyl)-[7-(4-methylpiperazin-1-yl)methyl-[1,4]dioxano[2,3-g]quinazolin-4-yl]amine hydrochloride] stands >>1,000 mg/10 ml of water.
Regarding `C#Cc1cccc(Nc2ncnc3cc4c(cc23)O[C@H](COC)[C@@H](COC)O4)c1` [Example 48, (7,8-bismethoxymethyl[1,4]dioxano[2,3-g]quinazolin-4-yl)-[3-(ethynyl)phenyl]-amine], the concentration for half-maximal inhibition (IC50) in series [1] is above 255 nM. Also, the GI50 in the series with A431 cancer cell was found to be 1.89 µg/mL (≈ 4.83 µM).
Consider `Brc1cccc(Nc2ncnc3cc4c(cc23)OC(CN2CCOCC2)CO4)c1` (stereo not drawn) [Example 31, (3-bromophenyl)-[7-(morpholin-4-ylmethyl)-[1,4]dioxano[2,3-g]quinazolin-4-yl]amine hydrochloride], for which the “Solubility (mg/10 ml of water)” value in series [2] is given as >>1,000 mg/10 ml of water. In series [1], this compound gave a concentration for half-maximal inhibition (IC50) of 101 nM. Also, the “inhibitory effect of cancer cell growth compared with standard material DP153035” value in the series on A431 cancer cell is on record as “better inhibitory effect of cancer cell growth than the standard material”. Moreover, in the series on A431 cancer cell (hydrochloride), the “A431 GI50” value turned out to be 0.19 µg/mL.
For `COCC1COc2cc3ncnc(Nc4cccc(Br)c4)c3cc2O1` (stereo not drawn) [Example 10, (3-bromophenyl)-(7-methoxymethyl-[1,4]-dioxano[2,3-g]quinazolin-4-yl)-amine], in series [2], the solubility thermodynamic stood at 241 µg/mL (≈ 599 µM). The IC50 in series [1] is 35.5 nM. Moreover, in the series with A431 cancer cell, the “inhibitory effect of cancer cell growth compared with standard material DP153035” value is “better inhibitory effect of cancer cell growth than the standard material” and the 50% growth inhibitory concentration (GI50) amounted to 0.24 µg/mL (≈ 0.597 µM).
Regarding `CN1CCN(CC2COc3cc4ncnc(Nc5cccc(Br)c5)c4cc3O2)CC1` (stereo not drawn) [Example 28, (3-bromophenyl)-[7-(4-methylpiperazin-1-yl)methyl-[1,4]dioxano[2,3-g]quinazolin-4-yl]amine], in series [1], half-maximal inhibition (IC50) required 8.91 nM. In the series with A431 cancer cell, the “inhibitory effect of cancer cell growth compared with standard material DP153035” value was “better inhibitory effect of cancer cell growth than the standard material” and the GI50 stood at 0.22 µg/mL (≈ 0.468 µM).
As for `OCCNCC1COc2cc3ncnc(Nc4cccc(Br)c4)c3cc2O1` (stereo not drawn) [Example 27, 2-[4-(3-bromophenylamine)-[1,4]dioxano[2,3-g]quinazolin-7-ylmethyl]amino-ethanol], the midpoint of inhibition in series [1], the IC50, lay at 28.2 nM. Moreover, the “A431 GI50” value with A431 cancer cell is 0.22 µg/mL.
Take `OCCNCC1COc2cc3ncnc(Nc4cccc(Br)c4)c3cc2O1` (stereo not drawn) [Example 35, 2-[4-(3-bromophenylamine)-[1,4]dioxano[2,3-g]quinazolin-7-ylmethyl]amino ethanol hydrochloride]: in series [2], the “Solubility (mg/10 ml of water)” value was >>1,000 mg/10 ml of water. The 50% inhibitory concentration (IC50) in series [1] was 49.9 nM. In the series with A431 cancer cell, the “inhibitory effect of cancer cell growth compared with standard material DP153035” value was “better inhibitory effect of cancer cell growth than the standard material”. Further, in the series on A431 cancer cell (hydrochloride), the “A431 GI50” value stood at 0.95 µg/mL.
On to `COCC1COc2cc3ncnc(Nc4cccc(C(F)(F)F)c4)c3cc2O1` (stereo not drawn) [Example 12, (3-trifluoromethylphenyl)-(7-methoxymethyl-[1,4]-dioxano[2,3-g]quinazolin-4-yl)-amine], for which the solubility thermodynamic in series [2] was 74 µg/mL (≈ 189 µM). Besides, the IC50 in series [1] was above 256 nM. In the series on A431 cancer cell, the “inhibitory effect of cancer cell growth compared with standard material DP153035” value is “better inhibitory effect of cancer cell growth than the standard material” and the 50% growth inhibitory concentration (GI50) was 0.43 µg/mL (≈ 1.1 µM).
In series [1], `COCC1COc2cc3ncnc(Nc4ccc(F)c(Cl)c4)c3cc2O1` (stereo not drawn) [Example 17, (3-chloro-4-fluorophenyl)-(7-methoxymethyl-[1,4]-dioxano[2,3-g]quinazolin-4-yl)-amine] had an IC50 of 97.7 nM. In the series with A431 cancer cell, the “inhibitory effect of cancer cell growth compared with standard material DP153035” value is on record as “better inhibitory effect of cancer cell growth than the standard material” and the 50% growth inhibitory concentration (GI50) stood at 0.6 µg/mL (≈ 1.6 µM).
In series [1], `COC[C@H]1Oc2cc3ncnc(Nc4cccc(Br)c4)c3cc2O[C@@H]1COC` [Example 44, (7,8-bismethoxymethyl[1,4]dioxano[2,3-g]quinazolin-4-yl)-(3-bromophenyl)-amine] showed a 50% inhibitory concentration (IC50) of 74.1 nM. In the series on A431 cancer cell, the GI50 turned out to be 2.91 µg/mL (≈ 6.52 µM).
Turning to `Cl.OCCNCC1COc2cc3ncnc(Nc4cccc(I)c4)c3cc2O1` (stereo not drawn) [Example 34, 2-[4-(3-iodophenylamine)-[1,4]dioxano[2,3-g]quinazolin-7-ylmethyl]amino ethanol hydrochloride], the “Solubility (mg/10 ml of water)” value in series [2] is recorded as >>1,000 mg/10 ml of water.
Take `Ic1cccc(Nc2ncnc3cc4c(cc23)OC(CN2CCOCC2)CO4)c1` (stereo not drawn) [Example 22, (3-iodophenyl)-[7-(morpholine-4-ylmethyl)-[1,4]dioxano[2,3-g]quinazolin-4-yl]-amine]: it took 25.1 nM to reach half-maximal inhibition in series [1] (IC50). Moreover, in the series with A431 cancer cell, the “inhibitory effect of cancer cell growth compared with standard material DP153035” value was “better inhibitory effect of cancer cell growth than the standard material” and the 50% growth inhibitory concentration (GI50) was determined as 0.38 µg/mL (≈ 0.753 µM).
Turning to `COC[C@H]1Oc2cc3ncnc(Nc4cccc(I)c4)c3cc2O[C@@H]1COC` [Example 45, (7,8-bismethoxymethyl[1,4]dioxano[2,3-g]quinazolin-4-yl)-(3-iodophenyl)amine], the GI50 in the series on A431 cancer cell is 1.59 µg/mL (≈ 3.22 µM).
In the case of `COCC1COc2cc3ncnc(Nc4ccc(C)c(Cl)c4)c3cc2O1` (stereo not drawn) [Example 16, (3-chloro-4-methylphenyl)-(7-methoxymethyl-[1,4]-dioxano[2,3-g]quinazolin-4-yl)-amine], the solubility thermodynamic in series [2] stood at 457 µg/mL (≈ 1230 µM).
